This note sets out measurements from patent publication US11324738B2, “Muscarinic agonists” (Heptares Therapeutics Limited, priority 2015, dated 2022).

Each structure is given as a SMILES string.

Holding throughout (format): cell-based
Assay [1] has as its target T1, human muscarinic M2 receptor (Homo sapiens, UniProt P08172).
T1 construct: expressed in transfected cells
T1 sequence (P08172 1-466): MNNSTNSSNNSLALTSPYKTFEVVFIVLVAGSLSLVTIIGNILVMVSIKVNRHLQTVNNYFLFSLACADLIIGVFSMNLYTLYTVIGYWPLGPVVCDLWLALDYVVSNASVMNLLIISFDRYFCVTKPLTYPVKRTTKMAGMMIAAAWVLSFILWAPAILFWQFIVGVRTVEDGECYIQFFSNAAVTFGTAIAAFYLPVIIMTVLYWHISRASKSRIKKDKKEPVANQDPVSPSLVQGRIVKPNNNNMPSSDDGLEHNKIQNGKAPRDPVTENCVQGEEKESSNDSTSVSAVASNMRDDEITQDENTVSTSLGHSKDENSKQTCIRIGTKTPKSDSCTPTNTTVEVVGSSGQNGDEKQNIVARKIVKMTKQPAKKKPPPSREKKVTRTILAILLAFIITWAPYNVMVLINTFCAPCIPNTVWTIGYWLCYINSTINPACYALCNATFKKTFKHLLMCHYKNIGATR
The experiment in a line: Alphascreen Surefire phospho-ERK1/2 functional assay, CHO cells expressing M2. As to conditions: for Emax: CHO, read-out: % Emax cf. ACh, M2; for EC50: agonist, CHO cells, phospho-ERK1/2, read-out: pEC50 M2 (converted). The protocol:
(§1) ERK1/2 phosphorylation is a downstream consequence of both Gq/11 and Gi/o protein coupled receptor activation, making it highly suitable for the assessment of M1, M3 (Gq/11 coupled) and M2, M4 receptors (Gi/o coupled), rather than using different assay formats for different receptor subtypes. CHO cells stably expressing the human muscarinic M1, M2, M3 or M4 receptor were plated (25K/well) onto 96-well tissue culture plates in MEM-alpha+10% dialysed FBS. Once adhered, cells were serum-starved overnight. Agonist stimulation was performed by the addition of 5 μL agonist to the cells for 5 min (37° C.). Media was removed and 50 μL of lysis buffer added. After 15 min, a 4 μL sample was transferred to 384-well plate and 7 μL of detection mixture added.

The target of assay [2] is T2, human muscarinic M1 receptor (Homo sapiens, UniProt P11229).
T2 construct: expressed in transfected cells
T2 sequence (P11229 1-460): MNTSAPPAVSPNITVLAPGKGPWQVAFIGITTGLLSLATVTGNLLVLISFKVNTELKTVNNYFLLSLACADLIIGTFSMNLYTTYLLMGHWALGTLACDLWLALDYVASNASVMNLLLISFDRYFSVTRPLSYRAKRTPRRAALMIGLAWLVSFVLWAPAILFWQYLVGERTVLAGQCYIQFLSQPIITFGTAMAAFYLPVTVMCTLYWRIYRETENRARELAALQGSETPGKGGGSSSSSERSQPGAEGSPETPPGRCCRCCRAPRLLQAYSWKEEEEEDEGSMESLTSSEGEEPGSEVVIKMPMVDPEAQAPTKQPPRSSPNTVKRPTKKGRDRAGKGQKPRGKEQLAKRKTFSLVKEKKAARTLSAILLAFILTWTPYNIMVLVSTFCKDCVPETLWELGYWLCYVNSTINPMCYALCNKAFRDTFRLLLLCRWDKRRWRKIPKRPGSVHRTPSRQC
The experiment in a line: Alphascreen Surefire phospho-ERK1/2 functional assay, CHO cells expressing M1. To be noted: for Emax: CHO, read-out: % Emax cf. ACh, M1; for EC50: agonist, CHO cells, phospho-ERK1/2, read-out: pEC50 M1 (converted). As for the experimental part:
as §1

In assay [3] the target is T3, human muscarinic M3 receptor (Homo sapiens, UniProt P20309).
T3 construct: expressed in transfected cells
T3 sequence (P20309 whole entry): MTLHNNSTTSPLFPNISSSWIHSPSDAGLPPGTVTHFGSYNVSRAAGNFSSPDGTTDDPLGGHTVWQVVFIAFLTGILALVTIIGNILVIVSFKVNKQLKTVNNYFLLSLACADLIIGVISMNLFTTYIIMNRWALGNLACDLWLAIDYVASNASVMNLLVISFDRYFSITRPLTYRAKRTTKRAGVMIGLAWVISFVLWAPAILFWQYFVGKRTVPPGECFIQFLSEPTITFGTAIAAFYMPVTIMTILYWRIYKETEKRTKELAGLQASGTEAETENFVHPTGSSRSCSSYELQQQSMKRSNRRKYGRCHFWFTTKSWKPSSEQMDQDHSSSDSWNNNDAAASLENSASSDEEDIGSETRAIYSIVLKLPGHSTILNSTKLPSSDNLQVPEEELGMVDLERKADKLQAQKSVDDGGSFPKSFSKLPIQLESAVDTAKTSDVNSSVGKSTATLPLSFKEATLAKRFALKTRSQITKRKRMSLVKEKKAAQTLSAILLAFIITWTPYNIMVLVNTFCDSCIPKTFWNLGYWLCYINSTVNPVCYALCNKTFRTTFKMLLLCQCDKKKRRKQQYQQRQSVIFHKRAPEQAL
The experiment in a line: Alphascreen Surefire phospho-ERK1/2 functional assay, CHO cells expressing M3. As to conditions: for Emax: CHO, read-out: % Emax cf. ACh, M3; for EC50: agonist, CHO cells, phospho-ERK1/2, read-out: pEC50 M3 (converted). As for the experimental part: as §1

Assay [4] deals with T4, human muscarinic M4 receptor (Homo sapiens, UniProt P08173).
T4 construct: expressed in transfected cells
T4 sequence (P08173 1-479): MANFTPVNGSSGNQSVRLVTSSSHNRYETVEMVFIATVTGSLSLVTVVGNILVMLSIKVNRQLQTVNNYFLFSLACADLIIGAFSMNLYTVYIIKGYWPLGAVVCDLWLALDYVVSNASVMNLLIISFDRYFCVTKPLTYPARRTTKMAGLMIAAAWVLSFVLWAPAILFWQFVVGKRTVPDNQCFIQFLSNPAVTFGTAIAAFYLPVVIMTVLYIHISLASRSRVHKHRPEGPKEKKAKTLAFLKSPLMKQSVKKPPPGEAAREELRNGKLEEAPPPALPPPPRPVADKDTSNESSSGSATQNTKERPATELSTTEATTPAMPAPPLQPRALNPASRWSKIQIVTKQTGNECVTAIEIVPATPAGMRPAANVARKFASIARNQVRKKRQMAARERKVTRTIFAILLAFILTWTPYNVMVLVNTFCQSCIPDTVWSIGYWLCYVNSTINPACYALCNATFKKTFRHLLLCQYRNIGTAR
The experiment in a line: Alphascreen Surefire phospho-ERK1/2 functional assay, CHO cells expressing M4. As to conditions: for Emax: CHO, read-out: % Emax cf. ACh, M4; for EC50: agonist, CHO cells, phospho-ERK1/2, read-out: pEC50 M4 (converted). The protocol: as §1

In the case of `CCOC(=O)N1CC2(CCC(N3CCC(N4C(=O)CC[C@H]4C)CC3)C2)C1` (mixture of isomers) [Example 2-7 (mixture of isomers), Ethyl 6-{4-[(2R)-2-methyl-5-oxopyrrolidin-1-yl]piperidin-1-yl}-2-azaspiro[3.4]octane-2-carboxylate], the Emax in assay [1] was 9%; in assay [2] it was 71%; in assay [3], 53%; in assay [4], 69%. Moreover, the EC50 in assay [1] is over 20 µM; in assay [2] it was 39.8 nM; in assay [3], over 20 µM; in assay [4], 3.98 nM.

Turning to `CCOC(=O)N1CC2(CC(N3CCC(N4CC(F)(F)C[C@@H]4CO)CC3)C2)C1` [Example 1-12, Ethyl 6-{4-[(2R)-4,4-difluoro-2-(hydroxymethyl)pyrrolidin-1-yl]piperidin-1-yl}-2-azaspiro[3.3]heptane-2-carboxylate], the Emax was 7% in assay [1], 63% in assay [2], 11% in assay [3] and 88% in assay [4]. In addition, the EC50 in assay [1] was over 20 µM; in assay [2], 251 nM; in assay [3] it was over 20 µM; in assay [4], 31.6 nM.

Turning to `CCOC(=O)N1CC2(CCC(N3CCC(N4C(=O)CC[C@H]4CC)CC3)C2)C1` (mixture of isomers) [Example 2-9 (mixture of isomers), Ethyl 6-{4-[(2R)-2-ethyl-5-oxopyrrolidin-1-yl]piperidin-1-yl}-2-azaspiro[3.4]octane-2-carboxylate], the Emax in assay [1] is 11%; in assay [2] it was 100%; in assay [3], 8%; in assay [4], 123%. Further, the EC50 in assay [1] is over 20 µM; in assay [2] it was 39.8 nM; in assay [3], over 20 µM; in assay [4], 3.16 nM.

For `CCOC(=O)N1CC2(CC(N3CCC(N4CCCC4c4ccon4)CC3)C2)C1` (racemic) [Example 1-5 (racemic), ethyl 6-{4-[2-(1,2-oxazol-3-yl)pyrrolidin-1-yl]piperidin-1-yl}-2-azaspiro[3.3]heptane-2-carboxylate], the Emax in assay [1] was 67%; in assay [2] it was 18%; in assay [3], 10%; in assay [4], 64%. The EC50 in assay [1] is over 20 µM; in assay [2], over 20000 nM; in assay [3] it was over 20 µM; in assay [4], 39.8 nM.

Consider `CCOC(=O)N1CC2(CC(N3CCC(N4CCC[C@@H]4c4cnco4)CC3)C2)C1` [Example 1-6], for which the Emax in assay [1] was found to be 4%; in assay [2], 67%; in assay [3] it was 16%; in assay [4], 105%. The EC50 was over 20 µM in assay [1], 631 nM in assay [2], over 20 µM in assay [3] and 12.6 nM in assay [4].

Regarding `CCOC(=O)N1CC2(CCC(N3CCC(N4C(=O)CC[C@@H]4C)CC3)C2)C1` (mixture of isomers) [Example 2-5 (mixture of isomers), ethyl 6-{4-[(2S)-2-methyl-5-oxopyrrolidin-1-yl]piperidin-1-yl}-2-azaspiro[3.4]octane-2-carboxylate], the Emax in assay [1] stood at 6%; in assay [2] it was 38%; in assay [3] it was 3%; in assay [4], 36%. Also, the EC50 in assay [1] is over 20 µM; in assay [2] it was 158 nM; in assay [3] it was over 20 µM; in assay [4], 12.6 nM.
